The target of one experiment is wild-type Aurora B (Homo sapiens, UniProt Q96GD4). The experiment in a line: In vitro kinase assay with wild-type Aurora B. It counts as biochemical.
For the next experiment, the target named is T1, wild-type Aurora A (Mus musculus, UniProt P97477).
T1 construct: 6-His; made in house; host or cells: Sf9 insect cells (baculovirus, Bac-to-Bac)
T1 sequence (P97477 1-395): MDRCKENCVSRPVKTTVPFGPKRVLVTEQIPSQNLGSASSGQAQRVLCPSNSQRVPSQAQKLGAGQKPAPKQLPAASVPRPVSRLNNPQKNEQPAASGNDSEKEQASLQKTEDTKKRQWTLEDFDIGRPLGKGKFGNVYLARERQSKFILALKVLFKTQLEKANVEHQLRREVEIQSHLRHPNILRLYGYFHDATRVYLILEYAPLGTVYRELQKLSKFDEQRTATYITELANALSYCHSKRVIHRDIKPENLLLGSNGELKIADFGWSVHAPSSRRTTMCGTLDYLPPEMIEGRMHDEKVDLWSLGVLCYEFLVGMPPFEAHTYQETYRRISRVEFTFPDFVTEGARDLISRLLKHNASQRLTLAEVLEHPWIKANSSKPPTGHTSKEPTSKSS
T1 sequence (Q9ULW0 1-747 partner): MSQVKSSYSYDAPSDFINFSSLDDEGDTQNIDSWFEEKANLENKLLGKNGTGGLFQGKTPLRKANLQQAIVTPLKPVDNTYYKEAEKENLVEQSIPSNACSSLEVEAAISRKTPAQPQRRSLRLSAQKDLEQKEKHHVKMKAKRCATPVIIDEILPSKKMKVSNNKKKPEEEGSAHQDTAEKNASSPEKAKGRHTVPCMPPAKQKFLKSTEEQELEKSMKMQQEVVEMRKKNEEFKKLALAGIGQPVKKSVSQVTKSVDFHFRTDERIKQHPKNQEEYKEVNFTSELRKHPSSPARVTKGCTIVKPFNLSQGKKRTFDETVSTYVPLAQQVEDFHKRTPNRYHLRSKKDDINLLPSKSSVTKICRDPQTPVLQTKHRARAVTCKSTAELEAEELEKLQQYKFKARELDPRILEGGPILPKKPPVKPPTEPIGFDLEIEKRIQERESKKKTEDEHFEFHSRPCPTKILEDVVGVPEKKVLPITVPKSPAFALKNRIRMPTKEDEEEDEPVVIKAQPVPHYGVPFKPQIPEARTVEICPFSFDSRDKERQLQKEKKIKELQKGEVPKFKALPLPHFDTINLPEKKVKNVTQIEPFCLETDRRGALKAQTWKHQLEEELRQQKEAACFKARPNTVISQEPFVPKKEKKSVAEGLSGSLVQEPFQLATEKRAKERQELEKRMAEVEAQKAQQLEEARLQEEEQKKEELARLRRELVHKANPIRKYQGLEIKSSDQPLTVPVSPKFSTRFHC
Nature of the experiment: In vitro kinase assay with wild-type Aurora A and TPX2. It is filed as biochemical, murine. The note with it: wild-type Aurora A. The method, then:
(§1) For in vitro labeling, Aurora A/TPX2 complex (on beads) was pre-incubated with 10 μM cold ATP for 10 min to activate the kinase. The beads were washed twice with kinase buffer, and then subjected to kinase assay with 2-5 μg of recombinant protein (such as PHLDA) and 1 μCi of [γ-^32P] ATP. Reactions were terminated by adding SDS sample buffer, separated by SDS-PAGE gel, transferred to PVDF membrane and exposed to Biomax MS film. Aurora A kinase assays were conducted using 1 μCi of [γ-^32P] ATP and 3 μg of Aurora A substrate peptide in a final volume of 30 μl at 30° C. as reported before (Sun, et al, (2008a) Mol. Biol. Cell 19, 3052-3069).
(§2) IC50 values were determined by fitting the data to a sigmoidal dose response curve using GraphPad Prism 4.0 software. Km and Vmax values were derived from the assay described above using various concentrations of AA peptide substrate and ATP. Km and Vmax values were determined using GraphPad Prism 4.0 software.

The target of experiment [1] is T2, AA-as7 kinase (Aurora A LI85V, L201G) (Mus musculus, UniProt P97477, L185V/L201G).
T2 construct: the Aurora A mutant is the double mutant Aurora A (AA-as7); 6-His; made in house; host or cells: Sf9 insect cells (baculovirus, Bac-to-Bac)
T2 sequence (P97477 1-395 L185V/L201G): T1 sequence (P97477 1-395) with L185V, L201G
The experiment in a line: In vitro kinase assay with AA-as7 and TPX2. It counts as biochemical, murine. The note with it: AA-as7; phosphodonor as labelled. The method, then: as §1, §2

Experiment [2] addresses Aurora B-as7 (L138V, L154G-AB) kinase (Homo sapiens, UniProt Q96GD4, L138V/L154G). Nature of the experiment: In vitro kinase assay with AB-as7. It is filed as biochemical. The note with it: phosphodonor as labelled.
The next experiment concerns MDA cells. Nature of the experiment: Western blot of LIMK2 and Aurora A levels after MLN8237, MDA cells. It is filed as cell-based. The method, then: FIG. 11A-11F Aurora A and LIMK2 positive feedback loop is a common feature in several cancers. […] PC3 cells were transfected with scrambled shRNA (lane 1) or Aurora A-shRNA2 (lane 2) and Aurora A and LIMK2 levels analyzed after 30 h. […] FIG. 11C is a western blot showing that Aurora A ablation in HCT116 and PaCa2 cells depletes LIMK2. HCT116 and PaCa2 cells were transfected with scrambled shRNA (lanes 1 and 3) or Aurora A-shRNA2 (lanes 2 and 4) and Aurora A and LIMK2 levels analyzed. […] FIG. 11E is a western blot showing that LIMK2 acts as a pharmacodynamic biomarker for Aurora A kinase activity. Aurora A was inhibited using 0.5 μM MLN8237 in MDA cells and Aurora A, LIMK2 and actin levels analyzed. […] MDA cells were incubated with MLN8237 (0.5 μM and 1 μM) or the vehicle (DMSO). After 48 h, cells were analyzed using MTT assay. p*<0.05, when compared to the control.
AA-MDA and AA-as7 MDA cells were treated with either DMSO or 1-NM-PP1 (250 nM) for 12 h, followed by cell lysis. For MLN8237 experiment, MDA cells were treated with 1 μM MLN8237 for 12 h.
Cells were harvested and lysed in modified RIPA buffer, supplemented with protease inhibitors. Equal amounts of cell extracts were then used to conduct western blot.
Over a dozen Aurora A targeted drugs are in clinical trials. […] Aurora A was inhibited using MLN8237 and LIMK2 levels analyzed.

The test system of experiment [3] is HA-tagged LIMK2 in MDA cells. The experiment in a line: Gel shift / Western blot of HA-tagged LIMK2 and mutants in MDA cells after MLN8237. It counts as cell-based. To be noted: additional 12 h. The method, then:
FIGS. 8A-8D. Aurora A phosphorylates LIMK2 at 5283, T494 and T505 which increases its protein stability. […] 6-His-tagged wild type, (S283A) LIMK2, (T494A) LIMK2 and (T505A) LIMK2 mutants were phosphorylated using Aurora A/TPX2 and [^32P] ATP for 15 min and the products were separate by electrophoresis. […] Nucleic acids sequence encoding HA-tagged (S283A) LIMK2, (T494A) LIMK2, and (T505A) LIMK2 were transfected in MDA cells. After 30 h, cells were incubated with 0.5 μM MLN8237 for additional 16 h. Gel shift assay was performed using 10% SDS PAGE. Protein levels were analyzed using HA and actin antibodies. FIG. 8C is a western blot showing Aurora A promotes LIMK2 stability by phosphorylating S283, T494 and T505. Nucleic acids sequences encoding HA-tagged wt LIMK2, (S283A, T494A) LIMK2 (2A) and (S283A, T494A, T505A) LIMK2 (3A) were transfected in MDA cells. After 30 h, protein levels were analyzed using Aurora A, HA and actin antibodies. […] Wild type, double (2A) and triple (3A) mutants of LIMK2 were transfected in MDA cells along with 6-His Ubiquitin and LIMK2 ubiquitination analyzed.
Aurora A inhibits LIMK2 degradation by directly phosphorylating it at Ser283, Thr494 and Thr505: Since Aurora A regulates LIMK2 by phosphorylation (FIG. 6A), we set to identify Aurora A-mediated phosphorylation sites on LIMK2. Aurora A preferentially phosphorylates R/K/N-R-X-S/T-B, where B denotes any hydrophobic residue except Pro (Ferrari et al. (2005) Biochem. J. 390, 293-302). […] S283A, T494A and T505A LIMK2 alleles were generated and their phosphorylation analyzed in vitro. Aurora A phosphorylates LIMK2 at all these sites (FIG. 8A). […]
To confirm these findings, HA-tagged LIMK2 double mutant (S283A, T494A) and HAtagged LIMK2 triple mutant (S283A, T494A, T505A) were generated and transfected in MDA cells. […] After 24 h, Aurora A was inhibited using MLN8237 for an additional 12 h, and LIMK2 levels analyzed using HA antibody.
For orientation: Mobility shift assays separate free from complexed probe on a gel.

The values below come from patent US20130253037A1, “AURORA A KINASE EFFECTORS” (PURDUE RESEARCH FOUNDATION, priority 2010, published 2013).

Positions count from the first letter of the chain named. “Also recorded” adds a separate entry of the source.

Chain of wild-type Aurora B (Q96GD4 whole entry): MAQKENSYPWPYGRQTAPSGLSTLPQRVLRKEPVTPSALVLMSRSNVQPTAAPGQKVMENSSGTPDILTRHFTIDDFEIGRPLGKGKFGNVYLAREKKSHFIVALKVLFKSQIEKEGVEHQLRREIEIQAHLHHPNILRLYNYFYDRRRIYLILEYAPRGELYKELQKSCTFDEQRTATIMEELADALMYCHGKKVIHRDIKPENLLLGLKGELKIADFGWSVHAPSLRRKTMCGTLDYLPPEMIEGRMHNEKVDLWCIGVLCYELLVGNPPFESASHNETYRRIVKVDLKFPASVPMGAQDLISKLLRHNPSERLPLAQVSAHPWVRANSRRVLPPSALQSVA
Chain of Aurora B-as7 (L138V, L154G-AB) kinase (Q96GD4 whole entry L138V/L154G): as the sequence (Q96GD4 whole entry) above, with L138V, L154G counted along it

A word on the Km: it is the concentration of substrate that gives half-maximal velocity. Take `Nc1ncnc2c1ncn2[C@@H]1O[C@H](COP(=O)(O)OP(=O)(O)OP(=O)(O)O)[C@@H](O)[C@H]1O` [ATP]: the Kcat came out at 4.27 s⁻¹ on wild-type Aurora B, 31.3 s⁻¹ on wild-type Aurora A, 54.2 s⁻¹ in experiment [1] and 2.75 s⁻¹ in experiment [2]. Also, the Km on wild-type Aurora B was 23 µM; at wild-type Aurora A, 16.2 µM; in experiment [1] it was 17.7 µM; in experiment [2], 30.4 µM. Moreover, the Vmax on wild-type Aurora B is 5.12 × 10^4; at wild-type Aurora A, 4.24 × 10^5; in experiment [1], 7.31 × 10^5; in experiment [2], 3.30 × 10^4.
`COc1cc(Nc2ncc3c(n2)-c2ccc(Cl)cc2C(c2c(F)cccc2OC)=NC3)ccc1C(=O)O` [MLN8237]: in the experiment with MDA cells, the “Aurora A levels” value is “reduced” and the LIMK2 levels result is on record as “depleted LIMK2 levels; also recorded: reduced”. Further, in experiment [3], the “phospho-levels and protein levels of wt LIMK2 and (S283A, T494A) LIMK2” value is “decreased”; the “phosphorylation level (top band) and overall protein level of LIMK2 single mutants (S283A, T494A, T505A)” value is “decreased”; the “protein and phospho-levels of LIMK2 triple mutant (S283A, T494A, T505A)” value is on record as “remained unchanged”.
